Laboratory results taken from ChEMBL document CHEMBL1201862, “PubChem BioAssay data set” (2004).
Calls of active or inactive are those of the source.

Tests used:
Cytochrome P450 2C19 = Cytochrome P450 2C19 (Homo sapiens, UniProt P33261); assay: Cytochrome panel assay with activity outcomes. Panel member name: p450-cyp2c19 Compounds with AC50 equal or less than 10 uM are considered active; type: functional
Cytochrome P450 3A4 = Cytochrome P450 3A4 (Homo sapiens, UniProt P08684);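 note: CYP3A4 tested as one member of a cytochrome P450 panel screen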
Cytochrome P450 2C9 = Cytochrome P450 2C9 (Homo sapiens, UniProt P11712)
[1] = HEp-2 cell cytotoxicity, dose response, cytotoxicity control for RSV inhibitor project, HTS (AID 2410); type: functional; details: human respiratory syncytial virus
[2] = biological target: T1, Corticotropin-releasing factor receptor 2/Corticotropin-releasing factor-binding protein (Homo sapiens, UniProt P24387+Q13324); assay: activators of CRF receptor 2 with binding protein – uHTS hits, confirmation (AID 602473); type: functional; details: read-out: EC50_Mean
T1 sequence (Q13324 whole entry): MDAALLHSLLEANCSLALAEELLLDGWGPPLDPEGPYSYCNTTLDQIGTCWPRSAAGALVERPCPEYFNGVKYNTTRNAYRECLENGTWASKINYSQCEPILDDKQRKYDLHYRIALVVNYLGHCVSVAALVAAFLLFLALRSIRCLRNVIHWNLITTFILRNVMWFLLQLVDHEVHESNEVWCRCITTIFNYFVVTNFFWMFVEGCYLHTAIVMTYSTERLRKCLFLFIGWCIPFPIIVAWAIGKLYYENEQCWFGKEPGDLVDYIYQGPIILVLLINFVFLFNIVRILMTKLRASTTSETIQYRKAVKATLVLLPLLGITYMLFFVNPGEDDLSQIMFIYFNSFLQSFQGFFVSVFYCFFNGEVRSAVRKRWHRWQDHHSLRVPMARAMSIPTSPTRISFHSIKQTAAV
T1 sequence (P24387 whole entry): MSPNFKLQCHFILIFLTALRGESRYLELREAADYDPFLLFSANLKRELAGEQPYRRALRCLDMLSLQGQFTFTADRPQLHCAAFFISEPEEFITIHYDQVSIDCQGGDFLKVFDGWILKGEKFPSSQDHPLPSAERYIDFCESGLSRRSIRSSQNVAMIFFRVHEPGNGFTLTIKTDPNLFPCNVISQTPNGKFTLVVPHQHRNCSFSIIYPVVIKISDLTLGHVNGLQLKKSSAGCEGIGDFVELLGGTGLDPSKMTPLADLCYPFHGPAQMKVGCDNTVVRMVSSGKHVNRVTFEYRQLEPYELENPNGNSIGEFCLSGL

[3] = Luminescence Cell-Based Dose Response HTS to Identify Activators of Luciferase Translation or Activity in H4 […] Cells. [Related pubchem assays: 1829 (Project Summary), 1814 (Primary HTS)]; type: functional
H4 = assay: Luminescence Cell-Based Dose Response HTS to Identify Activators of 5'UTR Stem-Loop Driven Prion Protein mRNA Translation in H4 Neuroglioblastoma Cells. [Related pubchem assays: 1829 (Project Summary), 1814 (Primary HTS)]; type: functional; details: Homo sapiens
[4] = Luminescence Cell-Based Dose Confirmation HTS to Identify Activators of 5'UTR Stem-Loop Driven Alpha-Synuclein mRNA Translation in H4 Neuroglioblastoma Cells. [Related pubchem assays: 1829 (Project Summary), 1814 (Primary HTS)]; type: functional
[5] = inhibitors of SNCA 5'UTR-driven reporter translation, confirmation, H4 neuroglioma cells, luminescence (AID 1988); type: functional, cell-based
[6] = inhibitors of firefly luciferase expression or activity, dose response, H4 neuroglioma cells, luminescence (AID 1990); type: functional, cell-based
[7] = Luminescence Cell-Based Dose Response HTS to Identify Inhibitors of 5'UTR Stem-Loop Driven Prion Protein mRNA Translation in H4 Neuroglioblastoma Cells. [Related pubchem assays: 1827 (Project Summary), 1813 (Primary HTS)]; type: functional
[8] = cytotoxicity toward NIH3T3 fibroblasts, dose response, counter-screen, cell-based, ATP luminescence, mouse fibroblasts (AID 2010); type: functional;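 note: cells exposed to compound for about 90 hours before reading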
[9] = inhibitors of intracellular T. cruzi replication, confirmation, NIH3T3 host cells, beta-gal luminescence (AID 2044); type: functional, cell-based;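 note: intracellular parasites grown in NIH/3T3 mouse fibroblasts as host cells; luminescent beta-galactosidase reporter signal from transgenic T. cruzi replicating inside host cells; inhibitors lower the luminescence signal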
INS1 = assay: beta cell apoptosis inhibitors, cytokine rescue, dose response, luminescence, retest (AID 449756); type: functional, cell-based; details: Rattus norvegicus;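 note: cell death triggered by IL-1 beta plus TNF-alpha plus IFN-gamma mixture; protective hits raise ATP signal compared with cytokine alone wells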
Cytochrome P450 1A2 = biological target: T2, Cytochrome P450 1A2 (Homo sapiens, UniProt P05177);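 note: PubChem cytochrome P450 panel assay, CYP1A2 panel member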
T2 sequence (P05177 whole entry): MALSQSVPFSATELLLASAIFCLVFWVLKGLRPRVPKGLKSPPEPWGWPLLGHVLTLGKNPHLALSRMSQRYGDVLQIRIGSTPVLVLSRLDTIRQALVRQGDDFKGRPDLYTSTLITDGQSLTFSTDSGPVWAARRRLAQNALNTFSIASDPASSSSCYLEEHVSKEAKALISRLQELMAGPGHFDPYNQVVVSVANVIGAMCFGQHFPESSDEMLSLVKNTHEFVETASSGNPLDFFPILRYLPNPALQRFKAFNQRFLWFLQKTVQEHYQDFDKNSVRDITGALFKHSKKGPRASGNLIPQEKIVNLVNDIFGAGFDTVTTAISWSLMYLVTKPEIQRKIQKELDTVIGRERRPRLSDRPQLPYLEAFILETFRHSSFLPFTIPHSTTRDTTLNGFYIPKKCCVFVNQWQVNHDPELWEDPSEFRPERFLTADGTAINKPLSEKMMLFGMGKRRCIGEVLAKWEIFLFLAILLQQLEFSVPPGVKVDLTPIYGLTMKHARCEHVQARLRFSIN

Cytochrome P450 2C9, sequence (P11712 whole entry): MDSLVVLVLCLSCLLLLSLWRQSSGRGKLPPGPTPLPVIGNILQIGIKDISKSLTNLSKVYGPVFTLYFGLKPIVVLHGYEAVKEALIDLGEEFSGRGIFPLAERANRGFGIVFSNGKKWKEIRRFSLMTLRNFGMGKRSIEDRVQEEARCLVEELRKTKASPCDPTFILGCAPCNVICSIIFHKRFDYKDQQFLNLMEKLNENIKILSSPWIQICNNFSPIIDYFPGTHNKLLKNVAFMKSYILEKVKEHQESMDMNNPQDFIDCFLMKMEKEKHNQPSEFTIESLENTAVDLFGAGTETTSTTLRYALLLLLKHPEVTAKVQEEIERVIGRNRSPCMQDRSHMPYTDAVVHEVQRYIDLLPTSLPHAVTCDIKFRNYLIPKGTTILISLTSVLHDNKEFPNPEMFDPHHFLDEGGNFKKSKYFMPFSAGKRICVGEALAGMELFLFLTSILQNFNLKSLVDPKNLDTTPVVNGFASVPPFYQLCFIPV
Cytochrome P450 2C19, sequence (P33261 whole entry): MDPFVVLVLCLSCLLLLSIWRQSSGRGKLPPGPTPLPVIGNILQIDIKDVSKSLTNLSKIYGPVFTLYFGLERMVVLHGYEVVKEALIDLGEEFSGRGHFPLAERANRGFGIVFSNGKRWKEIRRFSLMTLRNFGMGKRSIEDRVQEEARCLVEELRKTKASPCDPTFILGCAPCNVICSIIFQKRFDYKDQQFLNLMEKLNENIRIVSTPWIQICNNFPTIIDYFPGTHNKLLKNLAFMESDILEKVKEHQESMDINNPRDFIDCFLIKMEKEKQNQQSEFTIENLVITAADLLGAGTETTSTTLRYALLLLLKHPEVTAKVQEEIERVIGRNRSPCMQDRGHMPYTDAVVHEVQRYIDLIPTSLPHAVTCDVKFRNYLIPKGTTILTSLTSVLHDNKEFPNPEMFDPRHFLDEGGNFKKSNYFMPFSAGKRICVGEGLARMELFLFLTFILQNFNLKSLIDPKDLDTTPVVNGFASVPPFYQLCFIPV
Cytochrome P450 3A4, sequence (P08684 whole entry): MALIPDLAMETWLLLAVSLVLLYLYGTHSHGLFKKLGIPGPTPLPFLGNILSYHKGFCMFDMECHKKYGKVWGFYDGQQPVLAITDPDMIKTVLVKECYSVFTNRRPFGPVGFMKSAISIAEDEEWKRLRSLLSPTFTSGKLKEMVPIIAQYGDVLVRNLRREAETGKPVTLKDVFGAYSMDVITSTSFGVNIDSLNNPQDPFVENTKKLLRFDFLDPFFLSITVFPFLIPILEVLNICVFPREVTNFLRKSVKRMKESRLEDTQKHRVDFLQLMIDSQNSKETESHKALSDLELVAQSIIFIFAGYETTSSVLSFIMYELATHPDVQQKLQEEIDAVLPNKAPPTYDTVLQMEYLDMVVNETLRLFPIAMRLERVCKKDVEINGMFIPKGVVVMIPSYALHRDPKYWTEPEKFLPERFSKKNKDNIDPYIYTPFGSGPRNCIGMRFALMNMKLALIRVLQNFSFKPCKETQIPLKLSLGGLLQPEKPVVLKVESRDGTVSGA

C[C@]1(C(=O)O)[C@@H]2CC[C@@H](O2)[C@@]1(C)C(=O)O
AC50 (Cytochrome P450 2C19): inconclusive

COc1ccc2[nH]c3c(NCCCN4CCCC4=O)ncnc3c2c1
AC50 (Cytochrome P450 3A4): 17.8 µM (inconclusive) | AC50 (Cytochrome P450 2C9): 3.98 µM (inconclusive) | AC50 (Cytochrome P450 2C19; read-out: AC50): 39.8 µM (inconclusive)

CC(C)NC(=O)c1c(O)c2cccc3c2n(c1=O)CCC3
CC50 [1]: 17.3 µM (active)

O=C(CCC1N=C2c3ccccc3N=C(SCc3ccc(Cl)cc3)N2C1=O)NCc1ccco1 (stereo unspecified)
CC50 [1]: 25.4 µM (active)

CCOc1ccc(NS(=O)(=O)c2ccc(C(=O)NCC3(N(C)C)CCCCC3)cc2)cc1
EC50 [2]: 8.72 µM (active)

CCCc1cc(O)nc(SCC(=O)c2cc(C)n(C3CC3)c2C)n1
CC50 [1]: 43.1 µM (active)

Cc1sc2ncnc(Sc3nc4ccccc4s3)c2c1C
EC50 [3]: > 120 µM (not active) | EC50 (H4): > 120 µM (not active) | EC50 [4]: > 120 µM (not active)

Clc1ccc2c(c1)C1OCCC1C(c1ccco1)N2 (stereo unspecified)
CC50 [1]: 33.4 µM (active)

O=C(CCN1C(=O)C2C3C=CC(C3)C2C1=O)N1CCN(c2cccc(Cl)c2)CC1 (stereo unspecified)
AC50 (Cytochrome P450 2C9): 11.2 µM (inconclusive) | AC50 (Cytochrome P450 2C19; read-out: AC50): 25.1 µM (inconclusive)

COc1ccc(-c2nc3c4c(ncn3n2)-c2ccccc2CC42CCCC2)cc1
EC50 [5]: 14.7 µM (active) | EC50 [6]: 23 µM (active) | EC50 [7]: > 120 µM (not active)

N#Cc1cccc(Nc2c3c(nc4ccccc24)CCCC3)c1
CC50 [1]: 15.9 µM (active)

CCOc1ccc(S(=O)(=O)N2CCCCC2)c2ccccc12
EC50 [5]: > 120 µM (not active) | EC50 [6]: 20.9 µM (active) | EC50 [7]: > 120 µM (not active)

Cc1cc[n+](C(C)C(=O)c2ccc(-c3ccccc3)cc2)cc1 (stereo unspecified)
EC50 [8]: > 60 µM (not active) | EC50 [9]: 3.33 µM (active) | AC50 (INS1): 4.05 µM (active)

CSc1nc2ccccc2n1CC(=O)Nc1cc(C(F)(F)F)ccc1N1CCOCC1
CC50 [1]: 42.4 µM (active)

Cc1cccc(C(=O)NNC(=O)C(=O)NC(C)(C)C)c1
AC50 (Cytochrome P450 2C19; read-out: AC50): 11.2 µM (inconclusive)

CC(=O)C(C(C)=O)c1cc(NS(=O)(=O)c2ccccc2)ccc1NS(=O)(=O)c1ccccc1
EC50 [2]: 9.35 µM (active)

Cc1nnc(SCC(=O)NC(=O)Nc2ccc3c(c2)OCCO3)n1N
EC50 [3]: 32.8 µM (active) | EC50 (H4): > 120 µM (not active) | EC50 [4]: 11.9 µM (active)

O=C(Cn1cc(C(F)(F)F)cc(Cl)c1=O)NCc1ccccc1
EC50 [3]: 31.6 µM (active) | EC50 (H4): 18.5 µM (active) | EC50 [4]: 84.7 µM (active)

O=c1c(-c2ccc(Cl)cc2)cnc2n1CCS2
EC50 [3]: 11.3 µM (active) | EC50 (H4): 13.7 µM (active) | EC50 [4]: 13 µM (active)

O=C(CSc1ccc(Cl)cc1)Nc1ccc(N2CCN(c3ccccc3)CC2)c(F)c1
AC50 (Cytochrome P450 2C19; read-out: AC50): 3.55 µM (inconclusive)

CC1CN(CC(O)COC(c2ccc(Cl)cc2)c2ccc(Cl)cc2)CC(C)O1 (stereo unspecified)
AC50 (INS1): 11.9 µM (active)

Brc1ccccc1C1=Nn2c(nnc2-c2ccccc2)SC1
EC50 [5]: 38.4 µM (active) | EC50 [6]: 15.5 µM (active) | EC50 [7]: > 120 µM (not active)

COC(=O)C1=CN(C2CCCCC2)C=C(C(=O)OC)C1c1ccc2c(c1)OCO2
EC50 [8]: > 60 µM (inconclusive) | EC50 [5]: > 120 µM (not active) | EC50 [6]: 15.8 µM (active) | EC50 [9]: 1.56 µM (active) | EC50 [7]: 57.5 µM (active)

O=C(Nc1cc(Cl)ccc1O)C1CC(c2ccccc2Cl)=NO1 (stereo unspecified)
CC50 [1]: > 50 µM (active)

O=c1c(-c2ccc(F)cc2)nc2cnc(N3CCOCC3)nc2n1CCc1ccccc1
AC50 (Cytochrome P450 1A2): 25.1 µM (inconclusive) | AC50 (Cytochrome P450 2C19; read-out: AC50): 39.8 µM (inconclusive)

Cc1nn(-c2ccccc2)c2sc(C(=O)NC3CC3)cc12
EC50 [3]: 48.3 µM (active) | EC50 (H4): 27.9 µM (active) | EC50 [4]: > 120 µM (not active)

CCOC(=O)c1cc([N+](=O)[O-])sc1NC(=O)c1ccc(S(=O)(=O)N2CC3(C)CC2CC(C)(C)C3)cc1 (stereo unspecified)
EC50 [2]: 0.793 µM (active)

COC(=O)[C@@]1(Cc2ccccc2)[C@H]2c3cc(C(=O)N(C)C)n(Cc4ccc(S(C)(=O)=O)cc4)c3C[C@H]2CN1C(=O)c1ccccc1
AC50 (Cytochrome P450 1A2): 31.6 µM (inconclusive) | AC50 (Cytochrome P450 2C9): 25.1 µM (inconclusive) | AC50 (Cytochrome P450 2C19; read-out: AC50): 39.8 µM (inconclusive)

O=C(Nc1cccnc1)c1ccc(CN2CCc3ccccc3C2)cc1
EC50 [3]: 28.6 µM (active) | EC50 (H4): > 120 µM (not active) | EC50 [4]: 50.3 µM (active)

CCN(CC)CCN1C(=O)c2oc3ccccc3c(=O)c2C1c1ccc(F)cc1 (stereo unspecified)
EC50 [3]: 14.1 µM (active) | EC50 (H4): 22.4 µM (active) | EC50 [4]: > 120 µM (not active)

COc1ccccc1NC(=O)CC(=O)CSc1nnc(-c2ccc(C)cc2)n1C
CC50 [1]: 17.7 µM (active)

COC(=O)c1ccc(CSc2nncn2C)cc1
EC50 [3]: 54.3 µM (active) | EC50 (H4): 11.3 µM (active) | EC50 [4]: 9.45 µM (active)

CSc1ccc(S(=O)(=O)Nc2ccc(N3CCOCC3)c(Cl)c2)cc1
AC50 (INS1): 29.8 µM (active)

O=c1cc(-c2ccccc2Cl)oc2c(NS(=O)(=O)c3cccs3)ccc(O)c12
CC50 [1]: 22 µM (active)

CC(Oc1ccc(C(=O)c2ccccc2)cc1)C(=O)Nc1ccc(S(N)(=O)=O)cc1 (stereo unspecified)
EC50 [2]: 8.21 µM (active)

N#Cc1cccc(NC(=O)N2CCCC3(CCN(C(=O)Oc4ccccc4)CC3)C2)c1
AC50 (Cytochrome P450 1A2): 15.8 µM (inconclusive) | AC50 (Cytochrome P450 3A4): 12.6 µM (inconclusive) | AC50 (Cytochrome P450 2C9): 25.1 µM (inconclusive) | AC50 (Cytochrome P450 2C19; read-out: AC50): 25.1 µM (inconclusive)

Clc1ccccc1Cn1nnc2c(N3CCOCC3)nc(C3CC3)nc21
EC50 [5]: 27 µM (active) | EC50 [6]: 23.8 µM (active) | EC50 [7]: > 120 µM (not active)

CCO[C@@H]1OC(C(=O)Nc2ccccc2)=C[C@H](c2csc3ccccc23)[C@H]1CCCO
CC50 [1]: 22.4 µM (active)

NC1=C(c2nc3ccccc3[nH]2)C(=O)CN1c1ccccc1
EC50 [3]: 79.8 µM (active) | EC50 (H4): 6.44 µM (active) | EC50 [4]: > 120 µM (not active)

CCOC(=O)CN1C(=O)C(Sc2n[nH]c(-c3ccc(C)cc3)n2)CCc2ccccc21 (stereo unspecified)
EC50 [5]: > 120 µM (not active) | EC50 [6]: 19.1 µM (active) | EC50 [7]: > 120 µM (not active)

COc1ccc(NC(=O)C(c2ccc(OC)cc2)N(C)C(=O)CNC(C)=O)cc1 (stereo unspecified)
AC50 (Cytochrome P450 2C19): inconclusive

COc1cc(-n2ccnc2SC)c(Cl)cc1Cl
AC50 (Cytochrome P450 1A2): 15.8 µM (inconclusive) | AC50 (Cytochrome P450 2C9): 39.8 µM (inconclusive) | AC50 (Cytochrome P450 2C19; read-out: AC50): 7.08 µM (inconclusive)

Cc1ccccc1NC(S)=NN1CCN(C)CC1
AC50 (Cytochrome P450 2C19; read-out: AC50): 25.1 µM (inconclusive)

C#CCOCCOCCOCCNc1nc(N2CCN(C(=O)CCCCCCCCCCNC(=O)[C@H](CCCCN)n3cc(C[C@@H](C)CC)nn3)CC2)nc(N2CCN(C(=O)CCCCCCCCCCNC(=O)[C@@H]([C@H](C)O)n3cc(C)nn3)CC2)n1
AC50 (INS1): 4.74 µM (active)

O=C(O)c1cc(O)c2c(Cl)cc(Cl)cc2n1
AC50 (Cytochrome P450 1A2): 39.8 µM (inconclusive) | AC50 (Cytochrome P450 2C19): inconclusive
